Experimental findings from ChEMBL document CHEMBL6103592, “Discovery of novel thiazole-pleuromutilin derivatives with potent antibacterial activity” (Eur J Med Chem, 2025) are described below.

A word on the IC50: it is the concentration that gives 50% inhibition.

Active and inactive are the calls of the source. The calls are words filed in the database; no cut-off is given here.

The test system of series [1] is Staphylococcus aureus. Put plainly: Antibacterial efficacy against methicillin-resistant Staphylococcus aureus ATCC 43300 infected in cyclophosphamide-induced neutropenic systemic infection Kunming mouse model assessed as reduction in bacterial load in lung at 20 mg/kg, iv pretreated with cyclophosphamide for 1 hr followed by compound addition and measured after 5 days. The following applies: time 5 day. The class given is functional.

In series [2] the test system is Staphylococcus aureus. Put plainly: Antibacterial efficacy against methicillin-resistant Staphylococcus aureus ATCC 43300 infected in cyclophosphamide-induced neutropenic systemic infection Kunming mouse model assessed as reduction in bacterial load in liver at 20 mg/kg, iv pretreated with cyclophosphamide for 1 hr followed by compound addition and measured after 5 days. Format: functional. The following applies: time 5 day.

The test system of series [3] is HepG2. The experiment in a line: Cytotoxicity against human HepG2 cells assessed as survival rate incubated for 24 hrs by CCK-8 assay. The class given is functional, cell-based. The following applies: HepG2, 24 h. (In general: Formazan colour is commonly taken as a measure of viable cells.)
Series [4] concerns Staphylococcus aureus. Put plainly: Antibacterial efficacy against methicillin-resistant Staphylococcus aureus ATCC 43300 infected in cyclophosphamide-induced neutropenic systemic infection Kunming mouse model assessed as alveolar epithelial cell necrosis at 20 mg/kg, iv pretreated with cyclophosphamide for 1 hr followed by compound addition and measured after 5 days by light microscopic analysis. The class given is functional, organism-based. The following applies: time 5.0 day.

For series [5], the system named is Staphylococcus aureus. Put plainly: Antibacterial efficacy against methicillin-resistant Staphylococcus aureus ATCC 43300 infected in cyclophosphamide-induced neutropenic systemic infection Kunming mouse model assessed as reduction in bacterial load in kidney at 20 mg/kg, iv pretreated with cyclophosphamide for 1 hr followed by compound addition and measured after 5 days. The class given is functional, organism-based. The following applies: time 5.0 day.

Series [6] in a line: Cytotoxicity against human HEK293T cells assessed as survival rate at 200 micromol/L incubated for 24 hrs by CCK-8 assay relative to control. The class given is toxicity, cell-based, HEK-293T. The following applies: dose 200 µmol/L, read-out: Survival.
For series [7], the system named is HepG2. Put plainly: Cytotoxicity against human HepG2 cells assessed as survival rate at 200 micromol/L incubated for 24 hrs by CCK-8 assay relative to control. Format: functional. The following applies: HepG2, 24 h, dose 200 µmol/L, read-out: Survival.
Series [8] is described as follows: Cytotoxicity against human HEK293T cells assessed as survival rate incubated for 24 hrs by CCK-8 assay. Format: toxicity, cell-based, HEK-293T.

Consider `C=C[C@]1(C)C[C@@H](OC(=O)CSC(C)(C)CNC(=O)[C@H](N)C(C)C)[C@]2(C)[C@H](C)CC[C@]3(CCC(=O)[C@H]32)[C@@H](C)[C@@H]1O` [VALNEMULIN], for which the figures for the Activity in the series on Staphylococcus aureus [1] and in the series on Staphylococcus aureus [2] were 0.98 log10CFU and 0.71 log10CFU, respectively. The half-inhibitory concentration (IC50) in the series with HepG2 [3] turned out to be 102 µM. Besides, the result with Staphylococcus aureus [4] and in the series on Staphylococcus aureus [5] was inactive. Also, the viability at 24 h, 200 µM in series [6] is 16%. Besides, the viability at 200 µM in the series with HepG2 [7] was 12%. Also, the IC50 at 24 h in series [8] was 52 µM.
